Measured values reported in US7153885B2, “Stolonoxides” (Universidad de Cadiz, priority 2000, dated 2006).
In brackets after ≈: the same amount, converted by molar mass.

Legend:
Format in all cases: cell-based
[1] = test system: P-388 (suspension culture of a lymphoid neoplasm from DBA/2 mouse); test: Antitumour screening, P-388 cell growth (adapted Bergeron method); conditions: approximate IC50, three days of incubation, growth vs control wells
Method: (§1) Cell Cultures. Cells were maintained in logarithmic phase of growth in Eagle's Minimum Essential Medium, with Earle's Balanced Salts, with 2.0 mM L-glutamine, with non-essential amino acids, without sodium bicarbonate (EMEM/neaa); supplemented with 10% Fetal Calf Serum (FCS), 10^−2 M sodium bicarbonate and 0.1 g/l penicillin-G+streptomycin sulfate.
(§2) A simple screening procedure has been carried out to determine and compare the antitumour activity of these compounds, using an adapted form of the method described by Bergeron et al (1984). The tumour cell line employed were P-388 (suspension culture of a lymphoid neoplasm from DBA/2 mouse), A-549 (monolayer culture of a human lung carcinoma), HT-29 (monolayer culture of a human colon carcinoma) and MEL-28 (monolayer culture of a human melanoma).
P-388 cell were seeded into 16 mm wells at 1×10^4 cells per well in 1 ml aliquots of MEM 5FCS containing the indicated concentration of drug. A separate set of cultures without drug was seeded as control growth to ensure that cells remained in exponential phase of growth. All determinations were carried out in duplicate. After three days of incubation at 37° C., 10% CO2 in a 98% humid atmosphere, an approximate IC50 was determined by comparing the growth in wells with drug to the growth in wells contol.

[2] = test system: A-549 (monolayer culture of a human lung carcinoma); test: Antitumour screening, A-549 cell growth (crystal violet); conditions: approximate IC50, three days of incubation
Method: as §1, §2
(§3) A-549, HT-29 and MEL-28 were seeded into 16 mm wells at 2×10^4 cells per well in 1 ml aliquots of MEM 10FCS containing the indicated concentration of drug. A separate set of cultures without drug was seeded as control growth to ensure that cells remained in exponential phase of growth. All determinations were carried out in duplicate. After three days of incubation at 37° C., 10% CO2 in a 98% humid atmosphere, the wells were stained with 0.1% Crystal Violet. An approximate IC50 was determined by comparing the growth in wells with drug to the growth in wells control.

[3] = test system: HT-29 (monolayer culture of a human colon carcinoma); test: Antitumour screening, HT-29 cell growth (crystal violet); conditions: approximate IC50, three days of incubation
Method: as §1, §2, §3

[4] = test system: MEL-28 (monolayer culture of a human melanoma); test: Antitumour screening, MEL-28 cell growth (crystal violet); conditions: approximate IC50, three days of incubation
Method: as §1, §2, §3

Compound | IC50 ([1]; Mus musculus, P388, 72 h) [µg/mL] | IC50 ([2]; Homo sapiens, A549, 72 h) [µg/mL] | IC50 ([3]; Homo sapiens, HT-29, 72 h) [µg/mL] | IC50 P 388 [1] [µg/mL] | IC50 A 549 [2] [µg/mL] | IC50 HT 29 [3] [µg/mL] | IC50 MEL 28 [4] [µg/mL]
C=CCC/C=C\C=C/CCCCCC[C@H]1CC[C@@H]([C@H]2CC[C@@H](CC(=O)OC)OO2)O1 [Methyl ester (1b), Stolonoxide A methyl ester] | 0.1 (≈ 0.238 µM) | 0.1 (≈ 0.238 µM) | 0.1 (≈ 0.238 µM) |  |  |  | 
Stolonoxide B methyl ester [Methyl ester (2b)] |  |  |  | 0.5 | 0.1 | 0.1 | 0.5
